Measured values as given in the supplement of paper PMC7801607.

Legend:
[1] = system: Plasmodium berghei ANKA liver stage in HepG2-A16-CD81
[2] = system: Plasmodium falciparum NF54 asexual blood stage
[3] = system: Plasmodium falciparum Dd2 asexual blood stage
HepG2-A16-CD81 = assay: CC50; higher = less toxic
Protocol: (§1)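 Dose-response IC50s: P. falciparum NF54 asexual (pLDH, 72 h; 6 means >6 µM), Dd2 asexual (SYBR Green I, 72 h, 1536-well; 5 means >5 µM), NF54 stage IV/V gametocytes (luciferase 48 h, ATP 24 h, PrestoBlue 48 h), P. berghei liver stage in HepG2-A16-CD81 (luciferase, 48 h; 5 means >5 µM), HepG2 CC50 (CellTiter-Glo; 5 means >5 µM).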

[4] = system: Plasmodium falciparum NF54 stage IV/V gametocytes
Protocol: as §1

[5] = system: Plasmodium falciparum NF54 stage IV/V gametocytes; remark: listed apart in the source
Protocol: as §1

Molecule `NC(=S)N/N=C/c1ncccc1N` has an IC50 [1] of 0.641 µM, an IC50 [2] of 1.64 µM and an IC50 [3] of 1.28 µM. For the same molecule, the CC50 (HepG2-A16-CD81) was over 5 µM.
`COc1cc(C)c2c(Oc3cccc(C(F)(F)F)c3)c(OC)cc(NC(C)CCCN)c2n1` (stereo not given) was tested, and the IC50 [1] was 3.35 µM, the IC50 [2] was 0.94 µM and the IC50 [3] was 0.506 µM. The CC50 (HepG2-A16-CD81) was over 5 µM, the “IC50 (luciferase reporter)” value [4] was 7.69 µM and the “IC50 (ATP bioluminescence)” value [5] was 1.4 µM.
For `Cc1cccc(C)c1C(=O)Nc1nc(-c2ccccn2)cc2ccccc12`, the IC50 [2] was over 6 µM, the IC50 [3] was over 5 µM and the “IC50 (luciferase reporter)” value [4] was 4.03 µM. For the same molecule, the “IC50 (ATP bioluminescence)” value [5] was 0.496 µM.
Work on `CN(C)CCCOc1ccc(-c2ccc3ncc4c(c3c2)n(C2CCOCC2)c(=O)n4C)cn1` yielded an IC50 [1] of 1.05 µM, an IC50 [2] of 4 µM and an IC50 [3] of 0.776 µM. The CC50 (HepG2-A16-CD81) was over 5 µM and the “IC50 (luciferase reporter)” value [4] was 1.67 µM.
For `N=C(N)NCCCCC(=O)Nc1cc(C(F)(F)F)cc(NC(=O)c2cc(C(=O)Nc3cc(C(F)(F)F)cc(NC(=O)CCCCNC(=N)N)c3O[C@@H]3CCNC3)ncn2)c1O[C@@H]1CCNC1`, the IC50 [2] was 2.21 µM, the IC50 [3] was 3.36 µM and the “IC50 (luciferase reporter)” value [4] was 6.07 µM.
In the case of `O=C1C=C(c2ccccc2)S(=O)(=O)c2ccccc21`, the IC50 [3] is reported as over 5 µM, the “IC50 (luciferase reporter)” value [4] is reported as 25.7 µM and the “IC50 (ATP bioluminescence)” value [5] is reported as 2.16 µM.
In the case of `CC(C)(C)c1ccc(Oc2ccc(N)cc2)cc1`, the IC50 [3] is reported as over 5 µM and the “IC50 (luciferase reporter)” value [4] is reported as 1.08 µM.
For `O=C(Nc1cccc(C2=NCCN2)c1)c1ccc(-c2ccc(C(=O)Nc3cccc(C4=NCCN4)c3)cc2)cc1`, the IC50 [1] was over 5 µM, the IC50 [2] was 0.0448 µM and the IC50 [3] was 0.0194 µM. The CC50 (HepG2-A16-CD81) was over 5 µM and the “IC50 (luciferase reporter)” value [4] was 0.48 µM.
Molecule `COc1nc2ccc(Br)cc2cc1[C@@H](c1ccccc1)[C@@](O)(CCN(C)C)c1cccc2ccccc12` has an IC50 [1] of over 5 µM, an IC50 [2] of over 6 µM and an IC50 [3] of 2.05 µM. It also gave a CC50 (HepG2-A16-CD81) of over 5 µM.
`N#Cc1c(F)c(Cl)c(NCc2ccccc2)c(C#N)c1F` was tested, and the IC50 [2] was over 6 µM, the IC50 [3] was over 5 µM and the “IC50 (luciferase reporter)” value [4] was 31.6 µM.
`Cn1cc(NC(=O)c2cc(NC(=O)c3ccc(/C=C/c4cnc5ccccc5c4)cc3)cn2C)cc1C(=O)NCCN1CCOCC1` gave an IC50 [1] of 1.99 µM, an IC50 [2] of 0.0621 µM and an IC50 [3] of 0.0694 µM. The CC50 (HepG2-A16-CD81) was over 5 µM and the “IC50 (luciferase reporter)” value [4] was 0.103 µM.
With `CC[C@H](NC(=O)[C@H](C)NC)C(=O)N1C[C@@H](O)C[C@H]1Cc1c(-c2[nH]c3cc(F)ccc3c2C[C@@H]2C[C@H](O)CN2C(=O)[C@H](CC)NC(=O)[C@H](C)NC)[nH]c2cc(F)ccc12` the IC50 [1] was 0.128 µM, the IC50 [2] was 0.987 µM and the IC50 [3] was 0.236 µM. For the same molecule, the CC50 (HepG2-A16-CD81) was over 5 µM, the “IC50 (luciferase reporter)” value [4] was 5.21 µM and the “IC50 (ATP bioluminescence)” value [5] was 1.53 µM.
Molecule `Clc1cc(Cl)c2c(c1)CCc1ccccc1C2n1ccnc1` (stereo not given) has an IC50 [1] of over 5 µM, an IC50 [2] of 1.48 µM and an IC50 [3] of 3.38 µM. For the same molecule, the CC50 (HepG2-A16-CD81) was over 5 µM, the “IC50 (luciferase reporter)” value [4] was 7.65 µM and the “IC50 (ATP bioluminescence)” value [5] was 4.23 µM.
In the case of `CCOC(=O)Nc1cc(NC(C)CC(C)CN(CC)CC)c2nc(-c3ccccc3)c(-c3ccccc3)nc2n1` (stereo not given), the IC50 [3] is reported as 4.05 µM, the “IC50 (luciferase reporter)” value [4] is reported as 28.6 µM and the “IC50 (ATP bioluminescence)” value [5] is reported as 4.26 µM.
With `Oc1cccc(C(Nc2nccs2)c2ccc3cccnc3c2O)c1` (stereo not given) the IC50 [2] was 3.46 µM, the IC50 [3] was over 5 µM and the “IC50 (luciferase reporter)” value [4] was 15.9 µM. The “IC50 (ATP bioluminescence)” value [5] was 5.02 µM.
With `C(=C\c1nc2ccccc2[nH]1)/c1ccc2c(c1)OCO2` the IC50 [3] was over 5 µM and the “IC50 (luciferase reporter)” value [4] was 3.92 µM.
